The values that follow come from patent US9198916B1, “Compounds and methods for treating tumors” (B&G Partners, LLC, priority 2014, dated 2015).

Series [1] deals with hERG (human ether-à-go-go-related gene) potassium channel current (Homo sapiens, UniProt Q12809). The series is described as follows: cell-based. The method, then:
All chemicals used in solution preparation were purchased from Sigma-Aldrich (St. Louis, Mo.) unless otherwise noted and were of ACS reagent grade purity or higher.
The duration of exposure to each test article concentration was 3 minutes.

Series [2] can be described thus: Repeated dose intraperitoneal (IP) BID study in mice, plasma concentration by LC-MS/MS and PK fit. Also on record: species or system female CD-1 mice. Particulars: female, CD-1, mouse, in vivo, fitted, repeated-dose single-compartment first-order absorption model, 10 mg/kg IP BID; for half-life: ip, 10 mg/kg. The method, then:
A total of 204.47 mg of the compound of Example 1 was weighed out in a sterile vial on an analytical balance, and a 10.22 ml volume of sterile DMSO containing 5% by volume sterile Tween 80 was added to the vial under a Class II sterile hood and mixed until fully dissolved to produce a 20 mg/ml stock solution of the compound of Example 1. The stock solution was split into 1.2 ml aliquots in sterile glass vials and stored frozen at −80° C.
Sterile 1.0 mg/ml injection solution of the compound of Example 1 was formulated in normal saline containing 4.75% DMSO and 0.25% Tween 80. A visible precipitate formed without the addition of at least 0.1% Tween 80. The injection solution was prepared by thawing one aliquot of sterile 20 mg/ml stock solution, and adding 0.526 cc of stock solution to a 10 ml sterile vial of USP 0.9% sodium chloride for injection (Hospira) to yield the desired concentrations of 1.0 mg/ml o the compound of Example 1, 4.75% DMSO, and 0.25% Tween 80. The injection solution was gently mixed until fully dissolved. […] Injection solution was stored at 4° C. for up to five days after preparation, after which it was considered expired and discarded.
A total of 16 female CD-1 mice with an age of approximately 8-10 weeks (25-30 g) were used in this repeated dosing study. Each animal was weighed on the days 1, 4, 8, 11, and 15 during treatment. A 10 mg/kg dose of the compound of Example 1 was provided by IP injection of 10 ml/kg of 1.0 mg/ml injection solution to each animal every 12.0±0.5 hr. The injection solution was removed from the refrigerator and allowed to warm at room temperature for several minutes. The septum of the injection solution was wiped with sterile alcohol, and animals received 10 ml/kg by individual insulin syringes (one syringe per animal per injection), with the injection volume calculated using the most recent weighing for each individual animal. IP injections were staggered between the left and right side of the abdomen from one dosing to the next. […] The injection solution was returned to refrigerated storage after the last animal. […]

Each structure is given as a SMILES string. Where two headings read alike, the source gives them in different places.

hERG (human ether-à-go-go-related gene) potassium channel current, sequence (Q12809 whole entry): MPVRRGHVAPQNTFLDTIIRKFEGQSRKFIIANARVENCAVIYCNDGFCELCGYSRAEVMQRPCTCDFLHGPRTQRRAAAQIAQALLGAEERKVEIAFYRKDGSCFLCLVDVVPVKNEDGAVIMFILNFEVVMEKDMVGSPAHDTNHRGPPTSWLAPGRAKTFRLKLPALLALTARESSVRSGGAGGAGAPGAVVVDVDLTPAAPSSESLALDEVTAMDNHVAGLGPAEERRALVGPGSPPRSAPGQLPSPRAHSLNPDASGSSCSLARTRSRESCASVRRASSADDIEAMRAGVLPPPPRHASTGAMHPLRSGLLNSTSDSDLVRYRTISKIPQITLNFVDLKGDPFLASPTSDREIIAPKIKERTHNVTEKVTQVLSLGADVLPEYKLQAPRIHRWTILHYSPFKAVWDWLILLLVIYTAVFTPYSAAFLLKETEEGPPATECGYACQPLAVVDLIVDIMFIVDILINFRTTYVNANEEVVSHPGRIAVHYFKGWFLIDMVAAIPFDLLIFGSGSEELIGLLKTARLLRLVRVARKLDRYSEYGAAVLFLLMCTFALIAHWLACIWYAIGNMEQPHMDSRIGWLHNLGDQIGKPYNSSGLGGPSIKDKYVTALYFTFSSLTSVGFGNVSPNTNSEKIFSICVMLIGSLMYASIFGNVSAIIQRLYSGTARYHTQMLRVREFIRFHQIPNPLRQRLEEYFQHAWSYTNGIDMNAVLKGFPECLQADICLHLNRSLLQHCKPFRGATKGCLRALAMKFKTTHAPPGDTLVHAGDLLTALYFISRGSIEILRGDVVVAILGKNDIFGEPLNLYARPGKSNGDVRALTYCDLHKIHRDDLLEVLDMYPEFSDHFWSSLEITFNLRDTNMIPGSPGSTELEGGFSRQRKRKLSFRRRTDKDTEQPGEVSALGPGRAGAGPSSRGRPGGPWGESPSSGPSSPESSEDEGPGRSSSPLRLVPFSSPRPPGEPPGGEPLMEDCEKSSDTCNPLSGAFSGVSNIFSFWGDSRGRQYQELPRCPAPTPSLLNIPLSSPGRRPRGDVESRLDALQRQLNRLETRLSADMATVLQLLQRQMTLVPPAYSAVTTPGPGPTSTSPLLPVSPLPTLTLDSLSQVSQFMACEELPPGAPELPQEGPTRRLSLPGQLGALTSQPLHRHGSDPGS

Take `CSc1ccc2c(c1)N(CCC1CCCCN1)c1ccccc1S2.Cl` (stereo not shown) [Example 1, 2-(methylsulfanyl)-10-[2-(piperidin-2-yl)ethyl]-10H-phenothiazine hydrochloride]: the IC50 (commonly the concentration needed to halve the response being measured) in series [1] came out at 1550 nM. The Vd/F in series [2] (read-out: apparent volume of distribution (V/F)) turned out to be 8 L/kg. Moreover, the half-life (usually the time needed for the level to fall by half in the phase considered) was 0.48 h in series [2] (read-out: absorption half-life (converted)) and 14.7 h in series [2] (read-out: elimination half-life (converted)).
